Eleven compounds from patent US10010539B2, “Pyrazole, triazole and tetrazole orexin receptor antagonists” (MERCK SHARP & DOHME CORP., priority 2014, dated 2018) can be followed below.

Test [1] addresses human orexin-2 receptor (Homo sapiens (Human), UniProt O43614). Briefly: FLIPR Ca2+ Flux Assay, orexin-2 receptor (hOX2R FLIPR). It counts as cell-based. The conditions noted are these: CHO cells expressing the human orexin-2 receptor; agonist 70 pM Ala-6,12 human orexin-A. The protocol: (§1) The utility of the compounds in accordance with the present invention as orexin receptor OX1R and/or OX2R antagonists may be readily determined without undue experimentation by methodology well known in the art, including the “FLIPR Ca^2+ Flux Assay” (Okumura et al., Biochem. Biophys. Res. Comm. 280:976-981, 2001). In a typical experiment the OX1 and OX2 receptor antagonistic activity of the compounds of the present invention was determined in accordance with the following experimental method. For intracellular calcium measurements, Chinese hamster ovary (CHO) cells expressing the rat orexin-1 receptor or the human orexin-2 receptor, are grown in Iscove's modified DMEM containing 2 mM L-glutamine, […], 1% hypoxanthine-thymidine supplement, 100 U/ml penicillin, 100 μg/ml streptomycin and 10% heat-inactivated fetal calf serum (FCS). The cells are seeded at 20,000 cells/well into Becton-Dickinson black 384-well clear bottom sterile plates coated with poly-D-lysine. All reagents were from GIBCO-Invitrogen Corp. The seeded plates are incubated overnight at 37° C. and 5% CO2. Ala-6,12 human orexin-A as the agonist is prepared as a 1 mM stock solution in 1% bovine serum albumin (BSA) and diluted in assay buffer (HBSS containing 20 mM HEPES, 0.1% BSA and 2.5 mM probenecid, pH7.4) for use in the assay at a final concentration of 70 pM. Test compounds are prepared as 10 mM stock solution in DMSO, then diluted in 384-well plates, first in DMSO, then assay buffer. On the day of the assay, cells are washed 3 times with 100 μl assay buffer and then incubated for 60 min (37° C., 5% CO2) in 60 μl assay buffer containing 1 μM Fluo-4AM ester, 0.02% pluronic acid, and 1% BSA. The dye loading solution is then aspirated and cells are washed 3 times with 100 μl assay buffer. 30 μl of that same buffer is left in each well. Within the Fluorescent Imaging Plate Reader (FLIPR, Molecular Devices), test compounds are added to the plate in a volume of 25 μl, incubated for 5 min and finally 25 μl of agonist is added. Fluorescence is measured for each well at 1 second intervals for 5 minutes and the height of each fluorescence peak is compared to the height of the fluorescence peak induced by 70 pM Ala-6,12 orexin-A with buffer in place of antagonist. For each antagonist, IC50 value (the concentration of compound needed to inhibit 50% of the agonist response) is determined. Alternatively, compound potency can be assessed by a radioligand binding assay (described in Bergman et. al. Bioorg. Med. Chem. Lett. 2008, 18, 1425-1430) in which the inhibition constant (Ki) is determined in membranes prepared from CHO cells expressing either the OX1 or OX2 receptor. The intrinsic orexin receptor antagonist activity of a compound which may be used in the present invention may be determined by these assays.
On the technique in general: Calcium flux is commonly read through the fluorescence of an indicator in the cells.

In test [2] the target is hOXIR (orexin-1 receptor) (Homo sapiens, UniProt O43613). Briefly: FLIPR Ca2+ Flux Assay, orexin-1 receptor (hOXIR FLIPR). It counts as cell-based. As to conditions: CHO cells expressing the orexin-1 receptor (method text: rat; table head: hOXIR); agonist 70 pM Ala-6,12 human orexin-A. The protocol:
as §1

Sequence of human orexin-2 receptor (O43614 whole entry): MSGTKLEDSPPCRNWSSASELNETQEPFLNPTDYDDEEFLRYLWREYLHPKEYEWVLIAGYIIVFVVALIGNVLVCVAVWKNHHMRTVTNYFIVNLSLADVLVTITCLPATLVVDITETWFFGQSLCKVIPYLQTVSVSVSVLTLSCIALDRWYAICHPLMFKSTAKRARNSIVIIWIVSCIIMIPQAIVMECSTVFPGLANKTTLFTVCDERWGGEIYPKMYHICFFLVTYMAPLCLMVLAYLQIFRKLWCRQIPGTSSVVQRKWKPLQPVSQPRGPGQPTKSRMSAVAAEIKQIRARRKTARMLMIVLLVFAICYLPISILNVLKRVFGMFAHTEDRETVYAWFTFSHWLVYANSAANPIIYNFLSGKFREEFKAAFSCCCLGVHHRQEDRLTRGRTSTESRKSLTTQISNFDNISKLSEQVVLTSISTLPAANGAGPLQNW

Broadly, the IC50 is the concentration that gives 50% inhibition. Lower therefore signals inhibition by little substance. In the case of `C[C@@H]1CC[C@@H](n2ncc(-c3ccccc3)n2)CN1C(=O)c1ccccc1-n1nccn1` [Example 28, (2-(2H-1,2,3-triazol-2-yl)phenyl)((2R,5R)-2-methyl-5-(4-phenyl-2H-1,2,3-triazol-2-yl)piperidin-1-yl)methanone], the IC50 in test [1] was determined as 69.7 nM; in test [2], 54 nM.

`Cc1ccc(-n2nccn2)c(C(=O)N2C[C@H](n3ncc(C(C)(C)O)n3)CC[C@H]2C)c1` [Example 52, 2-{2-[(3R,6R)-6-methyl-1-{[5-methyl-2-(2H-1,2,3-triazol-2-yl)phenyl]carbonyl}piperidin-3-yl]-2H-1,2,3-triazol-4-yl}propan-2-ol]: the values for the concentration for half-maximal inhibition (IC50) in test [1] and in test [2] were 59.8 nM and 3090 nM, respectively.

As for `CCCc1ccccc1C(=O)N1C[C@H](n2cc(C(C)(C)O)cn2)CC[C@H]1C` [Example 76, 2-(1-{(3R,6R)-6-Methyl-1-[(2-propylphenyl)carbonyl]piperidin-3-yl}-1H-pyrazol-4-yl)propan-2-ol], the IC50 is 52.3 nM in test [1] and above 10000 nM in test [2].

For `C[C@@H]1CC[C@@H](n2cc(C(C)(C)O)cn2)CN1C(=O)c1nccnc1-n1nccn1` [Example 101, 2-{1-[(3R,6R)-6-Methyl-1-{[3-(2H-1,2,3-triazol-2-yl)pyrazin-2-yl]carbonyl}piperidin-3-yl]-1H-pyrazol-4-yl}propan-2-ol], the concentration for half-maximal inhibition (IC50) in test [1] is 479 nM; in test [2], above 10000 nM.

For `C[C@@H]1CC[C@@H](n2cc(C(C)(C)O)cn2)CN1C(=O)c1cccnc1-n1cccn1` [Example 90, 2-{1-[(3R,6R)-6-Methyl-1-{[2-(1H-pyrazol-1-yl)pyridin-3-yl]carbonyl}piperidin-3-yl]-1H-pyrazol-4-yl}propan-2-ol], the figures for the IC50 in test [1] and in test [2] were 33.6 nM and above 10000 nM, respectively.

Turning to `C[C@@H]1CC[C@@H](n2cc(C(C)(C)O)cn2)CN1C(=O)c1ccccc1-n1nccn1` [Example 75, 2-{1-[(3R,6R)-6-Methyl-1-{[2-(2H-1,2,3-triazol-2-yl)phenyl]carbonyl}piperidin-3-yl]-1H-pyrazol-4-yl}propan-2-ol], the IC50 in test [1] was 21.6 nM; in test [2], above 10000 nM.

As for `COCCc1ccccc1C(=O)N1C[C@H](n2ncc(C(C)(C)O)n2)CC[C@H]1C` [Example 44, 2-{2-[(3R,6R)-1-{[2-(2-methoxyethyl)phenyl]carbonyl}-6-methylpiperidin-3-yl]-2H-1,2,3-triazol-4-yl}propan-2-ol], the IC50 in test [1] is 897 nM; in test [2] it was above 10000 nM.

As for `Cc1cnn(-c2ncccc2C(=O)N2C[C@H](n3ncc(C(C)(C)O)n3)CC[C@H]2C)c1` [Example 10, ((2R,5R)-5-(4-(2-Hydroxypropan-2-yl)-2H-1,2,3-triazol-2-yl)-2-methylpiperidin-1-yl)(2-(4-methyl-1H-pyrazol-1-yl)pyridin-3-yl)methanone], the IC50 is 26 nM in test [1] and above 10000 nM in test [2].

In the case of `C[C@@H]1CC[C@@H](n2cc(C(C)(O)C(F)(F)F)cn2)CN1C(=O)c1ccccc1-n1nccn1` (stereo partly drawn) [Example 104, 1,1,1-Trifluoro-2-{1-[(3R,6R)-6-methyl-1-{[2-(2H-1,2,3-triazol-2-yl)phenyl]carbonyl}piperidin-3-yl]-1H-pyrazol-4-yl}propan-2-ol], the IC50 in test [1] stood at 13.4 nM; in test [2], 2010 nM.

Regarding `CCCc1ncccc1C(=O)N1C[C@H](n2ncc(C(C)(C)O)n2)CC[C@H]1C` [Example 3, ((2R,5R)-5-(4-(2-Hydroxypropan-2-yl)-2H-1,2,3-triazol-2-yl)-2-methylpiperidin-1-yl)(2-propylpyridin-3-yl)methanone], the IC50 in test [1] is 1060 nM; in test [2], above 10000 nM.

On to `C[C@@H]1CC[C@@H](n2ncc(C(C)(C)O)n2)CN1C(=O)c1ccccc1SC(F)(F)F` [Example 11, 2-{2-[(3R,6R)-6-Methyl-1-({2-[(trifluoromethyl)sulfanyl]pheny}carbonyl)piperidin-3-yl]-2H-1,2,3-triazol-4-yl}propan-2-ol], for which the IC50 in test [1] was 20 nM; in test [2] it was 2550 nM.
